Ten compounds from ChEMBL document CHEMBL1201862, “PubChem BioAssay data set” (2004) can be followed below.

What all share (experiment): growth of human tumour cells (NCI), 48 h
In assay [1] the test system is COLO 205.
The test system of assay [2] is KM-20L2.
For assay [3], the system named is K562.
Assay [4] concerns NCI-H23.
The subject of assay [5] is DMS-273.
Assay [6] concerns NCI-H226.
For assay [7], the system named is SNB-78.
Assay [8] relates to HOP-92.
Assay [9] relates to HL-60.
Assay [10] relates to OVCAR-3.
The subject of assay [11] is SNB-75.
Assay [12] has as its system OVCAR-4.
In assay [13] the test system is NCI/ADR-RES.
Assay [14] relates to DLD-1.
Assay [15] has as its system M19-MEL.
The test system of assay [16] is SF-539.
Assay [17] relates to DMS-114.
Assay [18] deals with SF-295.
For assay [19], the system named is UACC-257.
Assay [20] relates to LOX IMVI.

Molecules are shown by their SMILES.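 Following 48 hours of exposure in 96-well plates, responses at five concentrations were used to interpolate endpoints linearly. Here, GI50 denotes the concentration required for 50% inhibition of growth.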 The source made the active and inactive calls. Rule as the data show it: active = GI50 up to about 1.1 µM and inactive = higher.

Turning to `COc1cc(/C=C/c2ccc(OC)c(OC)c2)oc(=O)c1`, the GI50 in assay [1] was > 250 µM (inactive); in assay [2], > 167 µM (inactive); in [3], > 250 µM (inactive); in assay [4], 203 µM (inactive); in [5], > 110 µM (inactive); in assay [6], > 250 µM (inactive). Moreover, the GI50 in [7] is 150 µM (inactive); in assay [8], 122 µM (inactive); in [9], > 91.6 µM (inactive); in assay [10], > 250 µM (inactive); in assay [11], 73.3 µM (inactive); in assay [12], > 250 µM (inactive). Also, the GI50 is > 250 µM (inactive) in assay [13]; > 250 µM (inactive) in [14]; > 250 µM (inactive) in [15]; 213 µM (inactive) in [16]; > 182 µM (inactive) in [17]; 162 µM (inactive) in assay [18]. In addition, the GI50 in [19] and in assay [20] was > 250 µM (inactive) in each case.

In the case of `O=NN(CCCl)C(=O)N[C@H]1CC[C@@H](O)CC1`, the GI50 is 24.4 µM (inactive) in assay [1]; > 100 µM (inactive) in assay [2]; 23.6 µM (inactive) in [3]; 39.5 µM (inactive) in assay [4]; 34.8 µM (inactive) in [5]; 34.2 µM (inactive) in assay [6]. The GI50 in assay [7] is 24.7 µM (inactive); in [8], 8.43 µM (inactive); in assay [9], 18.2 µM (inactive); in assay [10], 33.2 µM (inactive); in [11], 22.6 µM (inactive); in [12] it was 60.4 µM (inactive). The GI50 in [13] was 23.3 µM (inactive); in assay [14] it was 24.6 µM (inactive); in assay [15], 27.9 µM (inactive); in assay [16], 23.3 µM (inactive); in [17], 20.7 µM (inactive); in assay [18] it was 24 µM (inactive). Also, the GI50 in assay [19] is 32.3 µM (inactive); in assay [20], 26.1 µM (inactive).

On to `CCOC(=O)C1=C(C)N2CCCOC2(C)C(C(=O)OC)C1c1cccc([N+](=O)[O-])c1` (configuration not stated), for which the GI50 in assay [1] is > 100 µM (inactive); in assay [2], > 100 µM (inactive); in assay [3], 55.2 µM (inactive); in [4], > 100 µM (inactive); in assay [6], > 100 µM (inactive); in [8], > 100 µM (inactive). In addition, the GI50 is 32.1 µM (inactive) in [9]; 42.9 µM (inactive) in assay [10]; 13.6 µM (inactive) in [11]; > 100 µM (inactive) in assay [15]; > 100 µM (inactive) in assay [16]; 44.8 µM (inactive) in assay [17]. For the same compound, the GI50 was 45.2 µM (inactive) in assay [18] and 86.5 µM (inactive) in [19].

As to `CCOC(=O)c1ccc(C)c(/N=N/N(C)C)c1`, the GI50 in [1], in assay [2], in assay [3], in assay [4], in assay [5] and in [6] was > 100 µM (inactive) each time. The GI50 in assay [8], in assay [9], in [10], in [11], in assay [12] and in assay [14] was > 100 µM (inactive) throughout. Also, the GI50 in assay [15], in assay [16], in [17], in assay [18], in assay [19] and in assay [20] was > 100 µM (inactive) each time.

As to `COc1cccc(N2C(Cl)C(=O)C2c2c[nH]c3ccccc23)c1` (configuration not stated), the GI50 in assay [1], in assay [2], in assay [3], in assay [4], in assay [8] and in assay [9] was > 100 µM (inactive) throughout. Further, the GI50 in assay [10] is > 100 µM (inactive); in assay [11], > 10 µM (inactive); in assay [12], > 100 µM (inactive); in assay [15] it was > 100 µM (inactive); in assay [17], > 100 µM (inactive); in assay [18], > 100 µM (inactive). In addition, in [19], the GI50 is > 100 µM (inactive).

With `CC(C)NC(=O)OCc1c(CO)c2c(n1C)-c1ccccc1CC2`, the GI50 in [1] was 21 µM (inactive); in [2], 30.8 µM (inactive); in assay [3], 15.2 µM (inactive); in assay [4] it was 26.7 µM (inactive); in [5], 26.8 µM (inactive); in [6] it was 21.7 µM (inactive). For the same compound, the GI50 in assay [7] is 33.8 µM (inactive); in [8], 18.2 µM (inactive); in assay [9], 16.4 µM (inactive); in assay [10] it was 22.4 µM (inactive); in assay [11], 33 µM (inactive); in assay [12] it was 26.3 µM (inactive). The GI50 was 24.5 µM (inactive) in assay [13]; 20.7 µM (inactive) in assay [14]; 23.9 µM (inactive) in [15]; 23.6 µM (inactive) in [16]; 18.7 µM (inactive) in [17]; 86.9 µM (inactive) in assay [18]. Moreover, the results for the GI50 in assay [19] and in assay [20] were 31.3 µM (inactive) and 25.4 µM (inactive), respectively.

Take `CCOC(=O)Cn1c(=O)c(C)cn(COCCO)c1=O`: the GI50 was > 100 µM (inactive) in assay [1]; > 100 µM (inactive) in assay [3]; > 100 µM (inactive) in assay [4]; 0.155 µM (active) in [6]; > 100 µM (inactive) in [8]; > 100 µM (inactive) in [9]. The GI50 in assay [10], in [11], in assay [12], in assay [13], in [16] and in assay [19] was > 100 µM (inactive) throughout. For the same compound, the GI50 in [20] was > 100 µM (inactive).

Turning to `Cc1ccc(C2COc3cc(O)c(O)cc3C2)cc1` (configuration not stated), the GI50 in assay [1] is 12.5 µM (inactive); in assay [2], 35.9 µM (inactive); in assay [3], 7.28 µM (inactive); in assay [4] it was 23.4 µM (inactive); in assay [5], 16.2 µM (inactive); in [6] it was 45.2 µM (inactive). Further, the GI50 was 31.6 µM (inactive) in [7]; 14.4 µM (inactive) in [8]; 1.64 µM (inactive) in assay [9]; 13.8 µM (inactive) in assay [10]; 42 µM (inactive) in assay [11]; 20.4 µM (inactive) in assay [12]. In addition, the GI50 in assay [13] is 15.7 µM (inactive); in assay [14], 17.5 µM (inactive); in [15], 19 µM (inactive); in assay [16] it was 22.4 µM (inactive); in [17] it was 12.7 µM (inactive); in assay [18] it was 32.6 µM (inactive). Further, the GI50 in [19] was 21.3 µM (inactive); in [20], 12.1 µM (inactive).

As for `CCCCS(=N)(=O)CC[C@H](N)C(=O)O` (some centres not stated) [BUTHIONINE SULFOXIME], the GI50 was > 5000 µM (inactive) in assay [1]; > 5000 µM (inactive) in assay [2]; > 5000 µM (inactive) in assay [3]; 3420 µM (inactive) in assay [4]; > 5000 µM (inactive) in assay [5]; > 5000 µM (inactive) in assay [6]. Moreover, the GI50 in assay [7] is > 5000 µM (inactive); in assay [8] it was 171 µM (inactive); in assay [9], 665 µM (inactive); in [10], > 4130 µM (inactive); in assay [11] it was 2320 µM (inactive); in [12], 2290 µM (inactive). In addition, the GI50 was 2840 µM (inactive) in assay [13]; > 5000 µM (inactive) in assay [14]; > 5000 µM (inactive) in assay [15]; 4910 µM (inactive) in [16]; > 5000 µM (inactive) in assay [17]; > 5000 µM (inactive) in assay [18]. Also, the GI50 in [19] was > 5000 µM (inactive); in assay [20] it was 237 µM (inactive).

Consider `CCCCCCCCCCCCCCCCSCC(COC)COP(=O)([O-])OCC[N+](C)(C)C` (configuration not stated) [ILMOFOSINE], for which the GI50 in assay [1] is 1.97 µM (inactive); in assay [3], 13.6 µM (inactive); in [4] it was 13.6 µM (inactive); in [5] it was 1.85 µM (inactive); in assay [6], 3.72 µM (inactive); in assay [7], 10.2 µM (inactive). Also, the GI50 in [8] was 2.26 µM (inactive); in [9], 1.55 µM (inactive); in assay [10] it was 5.38 µM (inactive); in [11] it was 3.31 µM (inactive); in assay [12] it was 4.06 µM (inactive); in [13], 16.5 µM (inactive). The GI50 in assay [14] is 3.03 µM (inactive); in assay [15] it was 2.79 µM (inactive); in assay [16], 16.1 µM (inactive); in assay [17], 7.5 µM (inactive); in assay [18], 2.49 µM (inactive); in assay [19], 14.3 µM (inactive). Besides, in [20], the GI50 was 5.41 µM (inactive).
